The target of assay [1] is T1, 26S proteasome non-ATPase regulatory subunit 10 (Homo sapiens) (UniProt O75832).
T1 sequence (whole entry): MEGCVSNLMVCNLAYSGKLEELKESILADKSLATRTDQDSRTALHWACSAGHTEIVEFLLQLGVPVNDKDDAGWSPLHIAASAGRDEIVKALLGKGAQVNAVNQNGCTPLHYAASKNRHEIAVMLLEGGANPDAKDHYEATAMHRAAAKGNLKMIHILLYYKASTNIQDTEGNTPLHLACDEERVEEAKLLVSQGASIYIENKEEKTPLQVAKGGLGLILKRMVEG
Description: Binding affinity to gankyrin (unknown origin) assessed as fold increase in change in melting temperature at 300 uM by thermal shift assay relative to control.

In assay [2] the test system is Hep 3B2. Description: Antiproliferative activity against human Hep3B cells assessed as reduction in cell viability incubated for 72 hrs by MTT assay. The class given is functional, cell-based. (Tetrazolium assays rely on reduction of a dye to a coloured formazan, in cell work by metabolically active cells.)
The subject of assay [3] is HepG2. Description: Antiproliferative activity against human HepG2 cells assessed as reduction in cell viability incubated for 72 hrs by MTT assay. The note with it: HepG2, 72 h. Type of assay: functional, cell-based.
Assay [4] concerns Hep 3B2. Description: Antiproliferative activity against human Hep3B cells assessed as reduction in cell viability at 50 uM incubated for 72 hrs by MTT assay relative to control. Type of assay: functional.
Assay [5] deals with HepG2. Nature of the assay: Antiproliferative activity against human HepG2 cells assessed as reduction in cell viability at 50 uM incubated for 72 hrs by MTT assay relative to control. Type of assay: functional. The note with it: HepG2, 72 h.

Activity calls are given as the source filed them. No cut-off for these calls is given here. Some results are limits rather than exact numbers.

In the case of `COC(=O)c1ccc(-n2cc(CCCOS(=O)(=O)c3ccc(I)cc3)nn2)cc1`, the fold change (FC) in assay [1] worked out at 1.7. For the same molecule, the IC50 turned out to be 25.3 µM in the assay with Hep 3B2 [2] and 17.5 µM in the assay on HepG2 [3].
For `COC(=O)c1ccc(-n2cc(CCCOS(=O)(=O)c3cccc(OC)c3)nn2)cc1` the same measures were 1.9, 20.9 µM and 36.9 µM.
Consider `COC(=O)c1ccc(-n2cc(CCCOS(=O)(=O)c3ccc(C)cc3)nn2)cc1`, for which the inhibition at 50 µM in the assay on Hep 3B2 [4] and with HepG2 [5] was 0% each time. In addition, in assay [1], the outcome was Active. The IC50 in the assay on Hep 3B2 [2] and in the assay on HepG2 [3] was above 50 µM in each case.
On to `COC(=O)c1ccc(-n2cc(CCCOS(=O)(=O)c3ccccc3)nn2)cc1`, for which, in assay [1], the outcome was inactive.
Take `COC(=O)c1ccc(-n2cc(CCCOS(=O)(=O)c3cccc(F)c3)nn2)cc1`: the inhibition at 50 µM with Hep 3B2 [4] and with HepG2 [5] was 0% each time. Further, in assay [1], the fold change (FC) stood at 1.4. Besides, the IC50 in the assay on Hep 3B2 [2] and with HepG2 [3] was above 50 µM throughout.
Turning to `COC(=O)c1ccc(-n2cc(CCCOS(=O)(=O)c3cccc(C#N)c3)nn2)cc1`, the outcome in assay [1] was Active.
Still for that read-out and setting: next, `COC(=O)c1ccc(-n2cc(CCCOS(=O)(=O)c3cccc(C(=O)OC)c3)nn2)cc1`: “inactive”.
Still for that read-out and setting: as for `COC(=O)c1ccc(-n2cc(CCCOS(=O)(=O)c3cccc(Cl)c3)nn2)cc1`, the entry is “inactive”; as for `COC(=O)c1ccc(-n2cc(CCCOS(=O)(=O)c3ccc(OC)cc3)nn2)cc1`, “Active”; as for `COC(=O)c1ccc(-n2cc(CCCOS(=O)(=O)c3cccc(C)c3)nn2)cc1`, “inactive”.
Same read-out and setting: next, `COC(=O)c1ccc(-n2cc(CCCOS(=O)(=O)c3ccc(C#N)cc3)nn2)cc1`: “Active”; `COC(=O)c1ccc(-n2cc(CCCOS(=O)(=O)c3ccc(C(C)C)cc3)nn2)cc1`: “inactive”; `COC(=O)c1ccc(-n2cc(CCCOS(=O)(=O)c3ccc(C(=O)OC)cc3)nn2)cc1`: “Active”.
On to `CCc1ccc(S(=O)(=O)OCCCc2cn(-c3ccc(C(=O)OC)cc3)nn2)cc1`, for which the result in assay [1] was Active.
As to `COC(=O)c1ccc(-n2cc(CCCOS(=O)(=O)c3ccc(-c4ccccc4)cc3)nn2)cc1`, the fold change (FC) in assay [1] was 2.3. Moreover, the IC50 was determined as 26 µM in the assay with Hep 3B2 [2] and 46.2 µM in the assay on HepG2 [3].
Consider `CNC(=O)c1ccc(S(=O)(=O)OCCCc2cn(-c3ccc(C(=O)OC)cc3)nn2)cc1`, for which the result in assay [1] was inactive.
In the case of `COC(=O)c1ccc(-n2cc(CCCOS(=O)(=O)c3ccccc3C)nn2)cc1`, the inhibition at 50 µM with Hep 3B2 [4] and in the assay on HepG2 [5] was 0% in each case. For the same molecule, the fold change (FC) in assay [1] came to 2. In addition, the IC50 in the assay on Hep 3B2 [2] and with HepG2 [3] was above 50 µM in each case.
In the case of `CCc1cccc(S(=O)(=O)OCCCc2cn(-c3ccc(C(=O)OC)cc3)nn2)c1`, the outcome in assay [1] was inactive.

As usually defined, the IC50 is the point on the concentration scale where inhibition reaches its midpoint. The inhibition is the relative decrease from the control value, in per cent.

Source of the values: ChEMBL document CHEMBL4610049, “Structural modification of the aryl sulfonate ester of cjoc42 for enhanced gankyrin binding and anti-cancer activity” (Bioorg Med Chem Lett, 2020).
